Paper PMC7683729, “Altered conformational sampling along an evolutionary trajectory changes the catalytic activity of an enzyme” (Nature Communications, 2020)

What was measured:
[1] = tested on: T1, AncCDT-5; experiment: end-point spectrophotometric phenylpyruvate formation ([…] nm); assay type: biochemical; settings: equal volumes of protein in 20 mM Na2HPO4, 150 mM NaCl pH 7.4 and prephenate in 50 mM Na2HPO4 pH 8.0; room temperature (20–25 °C)
T1 construct: ancestral protein ending at Lys235; pDOTS7 vector, His6-tagged, expressed in E. coli delta-pheA; IMAC and SEC; predominantly monomeric

[2] = target: the molecule itself; experiment: SEC-MALS; 100 μL of each protein loaded at 10 mg mL^-1 on Superdex 200 10/300 GL; 20 mM Na2HPO4, 150 mM NaCl, pH 7.4; 0.5 mL min^-1; single experiment (n = 1)

O=C(O)C(=O)CC1(C(=O)O)C=CC(O)C=C1 (centres unmarked) [prephenate]
Km [1]: 277 ± 4 µM

B1: cyclohexadienyl dehydratase from Pseudomonas aeruginosa (PaCDT) (enzyme, UniProt Q01269 26-268, looked up)
chain: QESRLDRILESGVLRVATTGDYKPFSYRTEEGGYAGFDVDMAQRLAESLGAKLVVVPTSWPNLMRDFADDRFDIAMSGISINLERQRQAYFSIPYLRDGKTPITLCSEEARFQTLEQIDQPGVTAIVNPGGTNEKFARANLKKARILVHPDNVTIFQQIVDGKADLMMTDAIEARLQSRLHPELCAVHPQQPFDFAEKAYLLPRDEAFKRYVDQWLHIAEQSGLLRQRMEHWLEYRWPTAHGK
notes: cyclohexadienyl dehydratase, Pseudomonas aeruginosa, UniProt Q01269 residues 26-268; PDB 5HPQ and 6BQE number - 11); source: E. coli K-12 ΔpheA (pDOTS7), IMAC-purified; not shown: His6, N-terminal, kept
stoichiometry N [2]: 3
